According to patent US20230106506A1, “NOVEL PqsR INVERSE AGONISTS” (Helmholtz-Zentrum Fur Infektionsforschung GmbH, priority 2020, published 2023):
pIC50: −log10 of the molar value. Like-named read-outs stand apart in the source and are kept apart here.

What was measured:
[1] = tested on: P. aeruginosa pyocyanin production; details: in cellulo, literature value; read-out: inhibition of virulence factor pyocyanin production: IC50; cited from earlier work
[2] = tested on: production of signal molecules HHQ and PQS; details: cited from earlier work
PqsR = target: T1, PqsR (Pseudomonas aeruginosa, UniProt Q9I4X0); experiment: PqsR reporter gene assay in E. coli (β-galactosidase); type: cell-based
T1 construct: transfected with pEAL08-2 plasmid encoding pqsR under control of promoter tac; expressed in transfected cells; host or cells: Escherichia coli DH5alpha carrying pEAL08-2
T1 sequence (Q9I4X0 whole entry): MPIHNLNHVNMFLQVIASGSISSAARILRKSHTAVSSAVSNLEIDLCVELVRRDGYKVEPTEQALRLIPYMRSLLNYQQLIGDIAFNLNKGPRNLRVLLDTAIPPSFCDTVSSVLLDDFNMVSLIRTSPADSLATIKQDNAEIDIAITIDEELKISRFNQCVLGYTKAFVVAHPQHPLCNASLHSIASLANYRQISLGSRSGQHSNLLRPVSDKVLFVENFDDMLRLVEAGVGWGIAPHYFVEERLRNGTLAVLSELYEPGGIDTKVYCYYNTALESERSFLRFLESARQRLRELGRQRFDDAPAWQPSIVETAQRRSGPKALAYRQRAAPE
Experimental: Inhibition of pqsR-dependent gene expression of test compounds was determined in an E. coli based β-galactosidase reporter gene assay. Escherichia coli DH5α was transfected with pEAL08-2 plasmid encoding pqsR under control of promoter tac and β-galactosidase reporter gene lacZ under control of promoter pqsA. Antagonistic effects of compounds were evaluated in the presence of/in competition to 50 nM PQS. A positive control was used to ensure the reliability of individual assays. First, PQS was diluted in methanol and added to the wells of a glass coated 96-deep-well plate, and the solvent was evaporated. Then, compounds were added in 5 μL DMSO to final concentrations of 0.001-10 μM. Overnight cultures of E. coli DH5a×pEAL08-2 were diluted 1:100 in LB medium with ampicillin (50 μg/ml) and incubated at 37° C. with shaking until it reached an OD600 of 0.2. Finally, 995 μL of culture was added to each well and the β-galactosidase activity was determined by ortho-nitrophenyl-β-galactoside conversion in permeabilized cells after a 2.5 h incubation period (37° C., 180 rpm). OD600, OD420, and OD550 were measured using POLARstar Omega (BMG Labtech, Ortenberg, Germany), and the activity was expressed as ratio of the slope of β-galactosidase activity between basal control (no PQS) and solvent control, IC50 values of antagonists were determined by variation of the concentration of the test compounds.

[3] = tested on: P. aeruginosa pyocyanin production; experiment: Pyocyanin assay; type: cell-based, P. aeruginosa strain PA14; details: Pseudomonas aeruginosa, PA14, 16 h, read-out: IC50-value towards pyocyanin production
Outline: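 PA14 washed overnight culture in PPGAS diluted to OD600 0.02, grown 16 h with compound (37 °C, 200 rpm, 75% RH). Pyocyanin extracted with chloroform, back-extracted into 0.2 M HCl. OD520 measured and normalised to OD600.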

[4] = Kinetic turbidimetric aqueous solubility; type: physicochemical; details: aqueous buffer, kinetic from dmso stock; PBS buffer, final DMSO 2%, absorbance 620 nm; read-out: Kinetic Turbidimetric Aqueous Solubility at room temperature for 5 min
Experimental: Kinetic Turbidimetric Aqueous Solubility at room temperature for 5 min. […] Data was analyzed by fitting a four parameter sigmoidal function to the measured and normalized absorbances and AUC calculation providing access to Log S (decadic logarithm of the solubility).

[5] = Metabolic stability in mouse liver microsomes (MLM); type: in vitro ADME; details: 1 μM compound, 0.5 mg/mL MLM, 1 mM NADPH, 37° C., read-out: half-life (t1/2) towards MLM
Outline: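 Phase I stability: 1 μM compound incubated at 37° C with 0.5 mg/mL mouse liver microsomes and 1 mM NADPH, sampled at 0-30 min and quenched in acetonitrile. Remaining parent measured by HPLC-MS/MS to derive half-life.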

[6] = tested on: virulence factor elastase; details: cited from earlier work

| Compound | pIC50 [1] | reduction of HHQ production ([2]; at 15 μM) | reduction of PQS production ([2]; at 15 μM) | pIC50 ([2]; QS inhibitor targeting the enzyme PqsA) | pIC50 (PqsR) | pIC50 [3] | solubility at 5 min [4] | half-life at 1 µM [5] | inhibition of PQS formation, active concentration [2] | inhibition of production of the virulence factor elastase, active concentration [6] |
| --- | --- | --- | --- | --- | --- | --- | --- | --- | --- | --- |
| CCCCCCCc1[nH]c2ccc([N+](=O)[O-])cc2c(=O)c1C(N)=O [2-heptyl-6-nitro-4-oxo-1,4-dihydroquinoline-3-carboxamide] | 5.70 | 54% | 37% | – | – | – | – | – | – | – |
| Nc1cccc(F)c1C(=O)O [Compound 6FABA] | – | – | – | ~4.00 | – | – | – | – | – | – |
| CC(C)Oc1ccc(-n2cc(CNc3cc(-c4cn[nH]c4)nc(C(F)(F)F)c3)nn2)cc1Cl [Compound 07, N-((1-(3-Chloro-4-isopropoxyphenyl)-1H-1,2,3-triazol-4-yl)methyl)-2-(1H-pyrazol-4-yl)-6-(trifluoromethyl)pyridin-4-amine] | – | – | – | – | ≥ 7.30 | ≥ 7.00 | > 25 µM | 0.5 to 1 h | – | – |
| Cn1cc(-c2cc(NCc3cn(-c4ccc(Oc5ccccc5)cc4)nn3)cc(C(F)(F)F)n2)cn1 [Compound 10, 2-(1-Methyl-1H-pyrazol-4-yl)-N-((1-(4-phenoxyphenyl)-1H-1,2,3-triazol-4-yl)methyl)-6-(trifluoromethyl)pyridin-4-amine] | – | – | – | – | ≥ 7.30 | 6.30 to 6.70 | > 25 µM | 0.5 to 1 h | – | – |
| CC(C)Oc1ccc(-c2ncc(CNc3cc(-c4cn[nH]c4)nc(C(F)(F)F)c3)s2)cc1 [Compound 11, N-((2-(4-Isopropoxyphenyl)thiazol-5-yl)methyl)-2-(1H-pyrazol-4-yl)-6-(trifluoromethyl)pyridin-4-amine] | – | – | – | – | ≥ 7.30 | ≥ 7.00 | > 10 µM | 0.5 to 1 h | – | – |
| CC(C)Oc1ccc(-c2ncc(CNc3cc(C#N)nc(-c4cn[nH]c4)c3)s2)cc1 [Compound 12, 4-(((2-(4-Isopropoxyphenyl)thiazol-5 yl)methyl)amino)-6-(1H-pyrazol-4-yl)picolinonitrile] | – | – | – | – | ≥ 7.30 | ≥ 7.00 | > 10 µM | 0.5 to 1 h | – | – |
| CC(C)Oc1ccc(-c2ncc(CNc3cc(-c4cnn(C)c4)nc(C(F)(F)F)c3)s2)cc1 [Compound 13, N-((2-(4-Isopropoxyphenyl)thiazol-5-yl)methyl)-2-(1-methyl-1H-pyrazol-4-yl)-6-(trifluoromethyl)pyridin-4-amine] | – | – | – | – | 6.60 to 7.29 | 6.30 to 6.70 | > 10 µM | 0.5 to 1 h | – | – |
| CC(C)Oc1ccc(-c2ncc(CNc3cc(-c4cc[nH]n4)nc(C(F)(F)F)c3)s2)cc1 [Compound 14, N-((2-(4-Isopropoxyphenyl)thiazol-5-yl)methyl)-2-(1H-pyrazol-3-yl)-6-(trifluoromethyl)pyridin-4-amine] | – | – | – | – | 6.60 to 7.29 | 6.30 to 6.70 | > 10 µM | > 1.67 h | – | – |
| CC(C)Oc1ccc(-c2ncc(CNc3cc(-n4ccnc4)nc(C(F)(F)F)c3)s2)cc1 [Compound 15, 2-(1H-Imidazol-1-yl)-N-((2-(4-isopropoxyphenyl)thiazol-5-yl)methyl)-6-(trifluoromethyl)pyridin-4-amine] | – | – | – | – | ≥ 7.30 | ≥ 7.00 | > 10 µM | 0.5 to 1 h | – | – |
| CC(C)Oc1ccc(-c2ncc(CNc3cc(-n4cncn4)nc(C(F)(F)F)c3)s2)cc1 [Compound 17, N-((2-(4-Isopropoxyphenyl)thiazol-5-yl)methyl)-2-(1H-1,2,4-triazol-1-yl)-6-(trifluoromethyl)pyridin-4-amine] | – | – | – | – | 6.60 to 7.29 | ≥ 7.00 | > 50 µM | 1.02 to 1.67 h | – | – |
| CC(C)Oc1ccc(-c2ncc(CNc3cc(-c4cn[nH]c4)nc(C(F)(F)F)c3)cn2)cc1Cl [Compound 48, N-((2-(3-Chloro-4-isopropoxyphenyl)pyrimidin-5-yl)methyl)-2-(1H-pyrazol-4-yl)-6-(trifluoromethyl)pyridin-4-amine] | – | – | – | – | ≥ 7.30 | 6.70 to 7.00 | > 25 µM | > 1.67 h | – | – |
| COC(=O)c1ccccc1N [methyl anthranilate] | – | – | – | – | – | – | – | – | millimolar concentrations | millimolar concentrations |
